From US7294633B2, “Oxazolo-and furopyrimidines and their use in medicaments against tumors” (Novartis AG, priority 2001, dated 2007) come the findings set out here.

In general, melting point refers to the temperature of the solid-liquid transition.

Take `C[C@@H](Nc1ncnc2oc(-c3cccc(N)c3)cc12)c1ccccc1` [Example 13, 4-(1R-phenylethylamino)-6-(3-aminophenyl)furo[2,3-d]pyrimidine]: the melting point lay within 64 to 84 °C.
